The conditions of series [1]: in water and ethanol/water mixtures; cited from earlier work.
The nature of series [2]: Non-aggregation of diclofenac free acid in dispersion (Malvern laser particle size analyzer). Format: physicochemical. The procedure: For example, the edible film of Example 2 completely disintegrates within 15 seconds. • (b) Plasma levels of diclofenac: The plasma levels of diclofenac are measured in vivo, e.g. in pigs, at different time intervals after oral administration of the edible films. Edible films according to the invention may produce similar plasma levels of diclofenac as a commercially available tablet comprising 12.5 mg diclofenac potassium (Voltaren® Dolo) [AUC (=Area Under the Curve) is essentially the same]. Tmax may be even shorter in edible films than in Voltaren® Dolo—what is desirable in many cases. • (c) Consumer testing of the organoleptic properties of the edible films: The perception of the edible films immediately after administration is tested. An immediate softening and pleasant feeling in the mouth are realized. • (d) Taste evaluation of the edible films: The taste of the edible films is evaluated in vitro with the aid of an “electronic tongue” equipment and also in consumer tests. […] For example, the particle size of—non-micronized or micronized—diclofenac free acid is measured with the aid of a Malvern (UK) laser particle size analyzer equipment before and after processing, under different conditions of manufacture, to an edible film.

Take `O=C(O)Cc1ccccc1Nc1c(Cl)cccc1Cl` [diclofenac free acid]: the solubility result in series [1] is “only poorly soluble”. Also, the “particle size distribution profile, starting material versus released from edible films” value in series [2] (before and after processing to an edible film (with ethanol, without ethanol, without ethanol with homogenization), disintegrated in water) is listed as “essentially is no difference”. The aggregation in dispersion entry in series [2] (non-micronized (mean particle size 16 micrometers) or micronized, solvents e.g. water, water/ethanol or ethanol) is recorded as “no such aggregation does occur”.

The values are drawn from US8911769B2, “Orally disintegrating pharmaceutical composition comprising diclofenac” (Novartis AG, priority 2004, dated 2014).
